# Test results: patent publication US7897602B2, “Indolinone compounds as kinase inhibitors” (Development Center for Biotechnology, priority 2009, dated 2011)
# Counter-ions that a name gives are not always drawn.
# Legend:
# Assay type in all cases: biochemical
# [1] = biological target: T1, Flt3 kinase (Homo sapiens, UniProt P36888); test: Flt3 kinase assay (33P incorporation into Poly(Glu-Tyr)); conditions: 100 nM test compound; read-out: Inhibition at 100 nM (%) Flt-3
# T1 construct: recombinant N-terminal 6×His-tagged Flt3 kinase domain construct expressed from baculovirus; 6xHis (N); made in house
# T1 sequence (P36888 610-943 limits assumed): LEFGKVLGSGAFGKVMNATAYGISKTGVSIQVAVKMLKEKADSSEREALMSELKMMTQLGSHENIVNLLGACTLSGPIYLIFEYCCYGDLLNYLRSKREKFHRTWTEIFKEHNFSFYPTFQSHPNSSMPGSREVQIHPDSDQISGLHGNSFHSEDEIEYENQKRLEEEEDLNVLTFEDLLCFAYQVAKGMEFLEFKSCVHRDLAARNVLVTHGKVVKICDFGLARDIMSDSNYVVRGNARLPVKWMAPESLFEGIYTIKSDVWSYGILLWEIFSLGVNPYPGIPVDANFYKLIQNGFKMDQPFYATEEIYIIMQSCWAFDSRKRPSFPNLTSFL
# In short: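 Baculovirus-expressed His-tagged Flt3 kinase domain (5 ng) with Poly(Glu-Tyr) 4:1 substrate, 100 μM ATP plus [33P]-γ-ATP, in MOPS pH 7.0 buffer, 30 min at 30 °C. Compound tested at a single 100 nM concentration; filter-bound radioactivity counted and percent inhibition calculated relative to DMSO control.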
# [2] = biological target: T2, c-Met kinase (Homo sapiens, UniProt P08581); test: c-Met kinase assay (33P incorporation into Poly(Glu-Tyr)); conditions: 500 nM test compound
# T2 construct: recombinant N-terminal 6×His-tagged c-Met kinase domain construct expressed from baculovirus; 6xHis (N); made in house
# T2 sequence (P08581 1078-1345 limits assumed): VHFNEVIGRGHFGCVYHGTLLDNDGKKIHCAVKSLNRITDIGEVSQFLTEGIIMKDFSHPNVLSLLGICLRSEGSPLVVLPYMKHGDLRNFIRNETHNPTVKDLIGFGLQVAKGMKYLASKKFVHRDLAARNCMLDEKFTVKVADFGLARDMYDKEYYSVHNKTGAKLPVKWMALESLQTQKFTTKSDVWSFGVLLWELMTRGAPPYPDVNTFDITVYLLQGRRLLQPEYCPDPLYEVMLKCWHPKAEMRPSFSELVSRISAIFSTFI
# In short: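 Single-concentration test (500 nM compound) at 30° C for 30 min, pH 7.0 MOPS buffer with 100 μM ATP and [33P]-γ-ATP. Enzyme was baculovirus-expressed 6×His c-Met kinase domain (5 ng), substrate Poly(Glu-Tyr) 4:1. Inhibition percentage derived from filter-bound counts relative to DMSO control.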
# [3] = biological target: T3, VEGFR2 kinase (Homo sapiens, UniProt P35968); test: VEGFR2 kinase assay (33P incorporation into Poly(Glu-Tyr)); conditions: 500 nM test compound; read-out: Inhibition at 500 nM (%) VEGFr-2
# T3 construct: recombinant N-terminal 6×His-tagged VEGFR2 kinase domain construct expressed by baculovirus; 6xHis (N); made in house
# T3 sequence (P35968 834-1162 limits assumed): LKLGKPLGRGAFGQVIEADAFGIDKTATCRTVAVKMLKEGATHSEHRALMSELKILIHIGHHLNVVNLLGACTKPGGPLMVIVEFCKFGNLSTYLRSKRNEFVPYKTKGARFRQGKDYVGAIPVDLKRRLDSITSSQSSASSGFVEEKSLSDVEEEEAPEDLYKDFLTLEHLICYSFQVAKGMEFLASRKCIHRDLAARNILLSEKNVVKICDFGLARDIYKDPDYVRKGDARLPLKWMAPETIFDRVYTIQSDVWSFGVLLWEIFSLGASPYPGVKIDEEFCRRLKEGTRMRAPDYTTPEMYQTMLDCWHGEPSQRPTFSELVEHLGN
# In short: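 Recombinant baculovirus-expressed N-terminal His6-tagged VEGFR2 kinase domain (6.25 ng) phosphorylated poly(Glu-Tyr) 4:1 with 100 μM ATP plus [33P]-γ-ATP in MOPS pH 7.0, 30 °C, 30 min. Test compound was at 500 nM (4% DMSO). Filter-retained radioactivity relative to DMSO control gave % inhibition.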
Structure (SMILES),inhibition at 0.1 µM [1] [%],inhibition at 0.5 µM [2] [%],inhibition at 0.5 µM [3] [%]
"CCOC(=O)CCc1c(/C=C2\C(=O)Nc3ccc(-c4ccc(F)cc4)cc32)[nH]c2c1C(=O)CCC2 [DCB-70108, (Z)-5-(4-fluorophenyl)-3-((3-(3-ethoxy-3-oxopropyl)-4-oxo-4,5,6,7-tetrahydro-1H-indol-2-yl)methylene)indolin-2-one]",11.8,30.1,14.1
"CCOC(=O)CCc1c(/C=C2\C(=O)Nc3ccc(NS(=O)(=O)CC)cc32)[nH]c2c1C(=O)CCC2 [DCB-70118, (Z)-5-ethylsulfonamido-3-((3-(3-ethoxy-3-oxopropyl)-4-oxo-4,5,6,7-tetrahydro-1H-indol-2-yl)methylene)indolin-2-one]",12.7,50.9,51.9
"CN1CCN(C(=O)CCc2c(/C=C3\C(=O)Nc4ccc(S(=O)(=O)N5CCCC5)cc43)[nH]c3c2C(=O)CCC3)CC1 [DCB-70120, (Z)-3-((3-(3-(4-methylpiperazin-l-yl)-3-oxopropyl)-4-oxo-4,5,6,7-tetrahydro-1H-indol-2-yl)methylene)-5-(pyrrolidin-1-ylsulfonyl)indolin-2-one]",31.2,10,17.6
"CCOC(=O)CCc1c(/C=C2\C(=O)Nc3cc(F)ccc32)[nH]c2c1C(=O)CCC2 [DCB-70122, (Z)-6-fluoro-3-((3-(3-ethoxy-3-oxopropyl)-4-oxo-4,5,6,7-tetrahydro-1H-indol-2-yl)methylene)indolin-2-one]",82.2,19.1,84
"O=C(O)CCc1c(/C=C2\C(=O)Nc3cc(F)ccc32)[nH]c2c1C(=O)CCC2 [DCB-70123, (Z)-6-fluoro-3-((3-carboxyethyl-4-oxo-4,5,6,7-tetrahydro-1H-indol-2-yl)methylene)indolin-2-one]",61.1,8.3,90.8
"CCN(CC)C(=O)CCc1c(/C=C2\C(=O)Nc3ccc(F)cc32)[nH]c2c1C(=O)CCC2 [DCB-70124, (Z)-N,N-diethyl-3-(2-((5-fluoro-2-oxoindolin-3-ylidene)methyl)-4-oxo-4,5,6,7-tetrahydro-1H-indol-3-yl)propanamide]",88.6,-0.8,72.5
"O=C1Nc2ccc(F)cc2/C1=C/c1[nH]c2c(c1CCC(=O)N1CCOCC1)C(=O)CCC2 [DCB-70125, (Z)-5-fluoro-3-((3-(3-morpholino-3-oxopropyl)-4-oxo-4,5,6,7-tetrahydro-1H-indol-2-yl)methylene)indolin-2-one]",94.6,2.9,83.4
"CCOC(=O)CCc1c(/C=C2\C(=O)Nc3cc(-c4ccc5c(c4)OCO5)ccc32)[nH]c2c1C(=O)CCC2 [DCB-70128, (Z)-ethyl 3-(2-((6-(benzo[d][1,3]dioxol-5-yl)-2-oxoindolin-3-ylidene)methyl)-4-oxo-4,5,6,7-tetrahydro-1H-indol-3-yl)propanoate]",3.2,12.5,19.3
"CCOC(=O)CCc1c(/C=C2\C(=O)Nc3ccc(NC(=O)Nc4cccc5ccccc45)cc32)[nH]c2c1C(=O)CCC2 [DCB-70129, (Z)-ethyl 3-(2-((5-(3-naphthalen-1-ylureido)-2-oxoindolin-3-ylidene)methyl)-4-oxo-4,5,6,7-tetrahydro-1H-indol-3-yl)propanoate]",12.3,5,88
"CCOC(=O)CCc1c(/C=C2\C(=O)Nc3cc(Br)ccc32)[nH]c2c1C(=O)CCC2 [DCB-70130, (Z)-ethyl 3-(2-((6-bromo-2-oxoindolin-3-ylidene)methyl)-4-oxo-4,5,6,7-tetrahydro-1H-indol-3-yl)propanoate]",89.1,4.2,69.8
"CCOC(=O)CCc1c(/C=C2\C(=O)Nc3ccc(NCc4ccccc4)cc32)[nH]c2c1C(=O)CCC2 [DCB-70131, (Z)-ethyl 3-(2-((5-(benzylamino)-2-oxoindolin-3-ylidene)methyl)-4-oxo-4,5,6,7-tetrahydro-1H-indol-3-yl)propanoate]",85.1,-2.1,65.9

# Results, then the molecule that gave them:
inhibition at 0.1 µM [1] [%],inhibition at 0.5 µM [2] [%],inhibition at 0.5 µM [3] [%],Structure (SMILES)
44.7,37.9,88.3,"O=C(O)CCc1c(/C=C2\C(=O)Nc3ccc(NS(=O)(=O)c4ccccc4)cc32)[nH]c2c1C(=O)CCC2 [DCB-70103, (Z)-5-phenylsulfonamido-3-((3-carboxyethyl-4-oxo-4,5,6,7-tetrahydro-1H-indol-2-yl)methylene)indolin-2-one]"
13.9,19.7,73.8,"CC(=O)Nc1ccc2c(c1)/C(=C/c1[nH]c3c(c1CCC(=O)O)C(=O)CCC3)C(=O)N2 [DCB-70104, (Z)-5-acetamido-3-((3-carboxyethyl-4-oxo-4,5,6,7-tetrahydro-1H-indol-2-yl)methylene)indolin-2-one]"
10.2,59.6,46.4,"O=C(O)CCc1c(/C=C2\C(=O)Nc3ccc(S(=O)(=O)N4CCc5ccccc54)cc32)[nH]c2c1C(=O)CCC2 [DCB-70106, (Z)-5-(indolin-1-ylsulfonyl)-3-((3-carboxyethyl-4-oxo-4,5,6,7-tetrahydro-1H-indol-2-yl)methylene)indolin-2-one]"
10.8,59.6,48.8,"CN1CCN(S(=O)(=O)c2ccc3c(c2)/C(=C/c2[nH]c4c(c2CCC(=O)O)C(=O)CCC4)C(=O)N3)CC1 [DCB-70107, (Z)-5-(4-methylpiperazin-1-ylsunfonyl)-3-((3-carboxyethyl-4-oxo-4,5,6,7-tetrahydro-1H-indol-2-yl)methylene)indolin-2-one hydrochloride]"
19.2,-10.8,58.6,"O=C(O)CCc1c(/C=C2\C(=O)Nc3ccc(-c4ccc(F)cc4)cc32)[nH]c2c1C(=O)CCC2 [DCB-70109, (Z)-5-(4-fluorophenyl)-3-((3-carboxyethyl-4-oxo-4,5,6,7-tetrahydro-1H-indol-2-yl)methylene)indolin-2-one]"
12,3.5,22.6,"O=C(O)CCc1c(/C=C2\C(=O)Nc3ccc(S(=O)(=O)N4CCCCC4)cc32)[nH]c2c1C(=O)CCC2 [DCB-70114, (Z)-5-(piperidin-1-ylsulfonyl)-3-((3-carboxyethyl-4-oxo-4,5,6,7-tetrahydro-1H-indol-2-yl)methylene)indolin-2-one]"
26.8,22.3,52.2,"C=CS(=O)(=O)c1ccc2c(c1)/C(=C/c1[nH]c3c(c1CCC(=O)O)C(=O)CCC3)C(=O)N2 [DCB-70115, (Z)-5-vinylsulfonyl-3-((3-carboxyethyl-4-oxo-4,5,6,7-tetrahydro-1H-indol-2-yl)methylene)indolin-2-one]"
19.4,38.1,47.9,"CCS(=O)(=O)c1ccc2c(c1)/C(=C/c1[nH]c3c(c1CCC(=O)O)C(=O)CCC3)C(=O)N2 [DCB-70116, (Z)-5-ethylsulfonyl-3-((3-carboxyethyl-4-oxo-4,5,6,7-tetrahydro-1H-indol-2-yl)methylene)indolin-2-one]"
48.3,41.4,43.3,CNS(=O)(=O)c1ccc2c(c1)/C(=C/c1[nH]c3c(c1CCC(=O)N1CCN(C)CC1)C(=O)CCC3)C(=O)N2 [DCB-70117]
-3.9,31.8,33.9,"CCS(=O)(=O)Nc1ccc2c(c1)/C(=C/c1[nH]c3c(c1CCC(=O)O)C(=O)CCC3)C(=O)N2 [DCB-70119, (Z)-5-ethylsulfonamido-3-((3-carboxyethyl-4-oxo-4,5,6,7-tetrahydro-1H-indol-2-yl)methylene)indolin-2-one]"
14.6,-6.7,19.6,"CN(C)S(=O)(=O)c1ccc2c(c1)/C(=C/c1[nH]c3c(c1CCC(=O)O)C(=O)CCC3)C(=O)N2 [DCB-70121, (Z)-5-(N,N-dimethylsulfamoyl)-3-((3-carboxyethyl-4-oxo-4,5,6,7-tetrahydro-1H-indol-2-yl)methylene)indolin-2-one]"
